According to patent USRE30548E, “Peptides which effect release of hormones” (The Salk Institute for Biological Studies, priority 1979, dated 1981):
Bridge positions count the residues as written; N and C are the ends. Ends that are not written are not given here.

Key:
[1] = test system: glucagon secretion; assay: In vivo bioassay: inhibition of glucagon release in anesthetized rats (portal vein plasma); parameters: species or system Sprague-Dawley-CD rats; details: in vivo rat, via external jugular vein; somatostatin = 100
Protocol: (§1) An investigation of the effect of somatostatin, dihydrosomatostatin, (as controls) and the peptides of the invention to inhibit the release of glucagon and insulin was made as follows:
(§2) In vivo Bioassay: Male Sprague-Dawley-CD rats weighing 180-200 g housed in temperature and humidity controlled quarters with 14h light and 10h dark (light 0700-[…]) were used in all experiments. Animals were fed a standard ration and tap water ad libitum. Experiments were carried out at least 5 days after arrival of rats from the supplier between the hours 1400 to 1600. After ether anesthesia, peptides or saline were administered in a volume of 0.2 ml. via the external jugular vein. Animals remained anesthetized until the time of blood collection from the portal vein. […]
(§3) Plasma was stored at -20° C. for insulin and glucagon determinations. Insulin levels were determined by the method of Herbert et al, J. […]. Endocr. […] Glucagon was determined by the method of Faloona and Unger, in Jaffe et al ed., Methods of Hormone Radioimmunoassay, Academic Press, New York, 1974, p. […] was determined by the glucose oxidase method, utilizing a Beckman Glucose Analyzer.
(§4) All experiments were carried on in a randomized block design. Following analysis of variance difference between treatments were determined by the multiple range tests of Dunnett and Duncan. Potency values were calculated from four or six point bioassays.

[2] = test system: insulin secretion; assay: In vivo bioassay: inhibition of insulin release in anesthetized rats (portal vein plasma); parameters: species or system Sprague-Dawley-CD rats; details: in vivo rat, via external jugular vein; somatostatin = 100
Protocol: as §1, §2, §3, §4

Substance: somatostatin (AGCKNFFWKTFTSC; disulfide 3-14; ends not checked; UniProt P61278 103-116, looked up)
- percent effectiveness for inhibiting secretion of Glucagon, somatostatin taken as the base [1]: 100%
- percent effectiveness for inhibiting secretion of Insulin, somatostatin taken as the base [2]: 100%
